The source of these data is patent US20140256639A1, “PEPTOID NEUTRALIZING AGENTS” (The Regents of the University of California, priority 2013, published 2014).

The test system of one data set is proteases. The conditions noted are these: physiological conditions; cited from earlier work.
The subject of the next data set is heparin activity. The conditions noted are these: Rabenstein and Wang 2006; cited from earlier work.
The nature of data set [1]: Heparin affinity chromatography (HAC), NaCl gradient elution. To be noted: pH 7.2, 50 mM sodium phosphate, gradient 0 to 1 M NaCl over 60 min, 0.65 mL/min. In kind it is binding. The procedure:
The relative affinities of the peptoids in Table 2 for heparin were determined by heparin affinity chromatography (“HAC”). Peptoid solutions, typically 0.2 mM, were eluted by gradient elution; mobile phase A consisted of pH 7.2, 50 mM sodium phosphate buffer and mobile phase B consisted of the same buffer but with 1 M NaCl added. The flow rate was 0.65 mL/min and the gradient began with 100% mobile phase A and 0% mobile phase B, and ended at 60 min with 0% mobile phase A and 100% B although most of the peptoid runs were complete within 30 min or less.

For Ac-SRGKAKVKAKVKDQTK-NH2 [L-HIPAP], the “stability / degradation by proteases” value in the data set with proteases is “more susceptible to degradation by proteases”.

On to “Ac-SRGKAKVKAKVKDQTK-NH2 (not fully specified; printed as Ac-SRGKAKVKAKVKDQTK-NH2) [L-HIPAP]”, for which the neutralizing heparin activity result with heparin activity was “equally effective”. On to Ac-SRGKAKVKAKVKDQTK-NH2 [D-HIPAP], for which, in the data set on proteases, the “stability / degradation by proteases” value was “more stable than L-HIPAP”. Substance “H-[N(Orn)-N(All)-N(Spe)]3-NH2 [s9merAll]” registered an HAC r.t. in data set [1] of 20 ± 2.0 min.
